{
  "source": "paper PMC10433430",
  "about": "“The transport of mannitol in Sinorhizobium meliloti is carried out by a broad-substrate polyol transporter SmoEFGK and is affected by the ability to transport and metabolize fructose” (Microbiology, 2023)",
  "key": {"MtlK": {"target": "T1, MtlK (Sinorhizobium meliloti, UniProt Q92N07)", "T1 construct": "full length from plasmid pJD02 (mtlK/pCO37) in S. meliloti smoS mutant; cell extract, native gel", "T1 sequence (Q92N07 entry or part of it)": "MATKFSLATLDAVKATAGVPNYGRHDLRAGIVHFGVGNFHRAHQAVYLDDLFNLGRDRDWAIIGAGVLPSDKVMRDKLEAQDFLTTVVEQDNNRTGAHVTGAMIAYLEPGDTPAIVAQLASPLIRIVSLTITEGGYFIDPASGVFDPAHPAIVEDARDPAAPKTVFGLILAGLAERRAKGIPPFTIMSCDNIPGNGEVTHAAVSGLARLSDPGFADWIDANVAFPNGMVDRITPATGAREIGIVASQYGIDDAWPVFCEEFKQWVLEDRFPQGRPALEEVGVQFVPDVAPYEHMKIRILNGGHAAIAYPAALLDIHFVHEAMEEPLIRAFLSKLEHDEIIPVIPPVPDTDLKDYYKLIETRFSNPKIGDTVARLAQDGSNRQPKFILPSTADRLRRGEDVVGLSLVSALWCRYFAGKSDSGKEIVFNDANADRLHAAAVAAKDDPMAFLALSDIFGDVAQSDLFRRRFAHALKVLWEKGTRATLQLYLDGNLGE", "experiment": "in-gel dehydrogenase activity stain, native PAGE", "assay_type": "biochemical", "details": "NAD+, phenazine methosulfate, nitro blue tetrazolium; cell extract"}, "SmoEFGK [1]": {"target": "T2, SmoEFGK (Sinorhizobium meliloti, UniProt Q92N02)", "T2 construct": "gene smoE; native ABC transporter in intact S. meliloti Rm1021 cells grown on mannitol; smoK::Tn5-B20 mutant as control; with ABC transporter, sorbitol/mannitol permease SmoF; ABC transporter, sorbitol/mannitol permease SmoG", "T2 sequence (Q92N03 entry or part of it)": "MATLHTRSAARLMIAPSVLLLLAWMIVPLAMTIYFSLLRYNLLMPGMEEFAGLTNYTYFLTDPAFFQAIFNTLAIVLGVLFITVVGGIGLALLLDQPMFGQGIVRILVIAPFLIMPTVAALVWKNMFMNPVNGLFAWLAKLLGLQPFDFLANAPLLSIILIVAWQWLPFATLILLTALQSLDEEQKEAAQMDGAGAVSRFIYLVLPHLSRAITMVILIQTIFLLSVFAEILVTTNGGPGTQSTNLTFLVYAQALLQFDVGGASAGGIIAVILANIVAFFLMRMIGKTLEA", "T2 sequence (Q92N04 entry or part of it, further chain)": "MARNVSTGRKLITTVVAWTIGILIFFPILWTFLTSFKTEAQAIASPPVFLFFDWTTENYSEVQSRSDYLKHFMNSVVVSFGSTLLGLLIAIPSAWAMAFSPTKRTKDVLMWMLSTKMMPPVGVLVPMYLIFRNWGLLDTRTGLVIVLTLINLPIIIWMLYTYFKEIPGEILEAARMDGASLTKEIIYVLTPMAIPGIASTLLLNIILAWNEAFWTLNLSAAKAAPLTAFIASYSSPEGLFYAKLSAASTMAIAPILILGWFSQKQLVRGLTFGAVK", "T2 sequence (Q92N02 entry or part of it)": "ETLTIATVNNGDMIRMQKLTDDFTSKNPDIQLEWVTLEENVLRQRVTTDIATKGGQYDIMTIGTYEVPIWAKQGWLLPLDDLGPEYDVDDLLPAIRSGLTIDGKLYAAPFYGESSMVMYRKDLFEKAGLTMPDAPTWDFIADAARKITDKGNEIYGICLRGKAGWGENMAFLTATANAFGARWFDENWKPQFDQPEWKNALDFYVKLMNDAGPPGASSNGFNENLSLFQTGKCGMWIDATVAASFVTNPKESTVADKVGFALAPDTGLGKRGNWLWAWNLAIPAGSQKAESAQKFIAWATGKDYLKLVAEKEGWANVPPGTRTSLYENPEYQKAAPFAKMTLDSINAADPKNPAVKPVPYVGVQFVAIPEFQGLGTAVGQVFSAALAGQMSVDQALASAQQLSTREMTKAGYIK", "T2 sequence (Q92N05 entry or part of it, further chain)": "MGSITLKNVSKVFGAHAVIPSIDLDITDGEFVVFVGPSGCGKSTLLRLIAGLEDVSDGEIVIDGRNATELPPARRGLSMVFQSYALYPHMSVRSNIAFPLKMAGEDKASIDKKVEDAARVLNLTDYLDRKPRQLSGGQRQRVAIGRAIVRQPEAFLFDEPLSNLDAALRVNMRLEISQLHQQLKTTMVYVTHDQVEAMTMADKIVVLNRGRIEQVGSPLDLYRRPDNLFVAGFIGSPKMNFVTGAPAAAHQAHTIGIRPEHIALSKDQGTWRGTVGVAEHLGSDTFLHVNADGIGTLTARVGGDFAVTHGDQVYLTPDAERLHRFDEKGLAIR", "experiment": "[…]-mannitol uptake competition, intact cells", "assay_type": "cell-based", "details": "2 µM 14C-mannitol as tracer, mannitol-grown wild-type Rm1021"}, "SmoS": {"target": "T3, SmoS (Sinorhizobium meliloti, UniProt Q92N06)", "T3 construct": "full length from plasmid pSMc01500 (smoS/pCO37) in S. meliloti smoS mutant; cell extract, native gel", "T3 sequence (Q92N06 entry or part of it)": "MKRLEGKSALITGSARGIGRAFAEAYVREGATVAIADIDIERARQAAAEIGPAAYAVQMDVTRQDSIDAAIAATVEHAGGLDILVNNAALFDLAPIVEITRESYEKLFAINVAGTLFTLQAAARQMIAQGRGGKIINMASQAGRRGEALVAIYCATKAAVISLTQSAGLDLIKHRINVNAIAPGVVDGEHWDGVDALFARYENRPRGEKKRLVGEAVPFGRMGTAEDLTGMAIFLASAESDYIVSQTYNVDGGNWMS", "experiment": "in-gel dehydrogenase activity stain, native PAGE", "assay_type": "biochemical", "details": "sorbitol as substrate, phenazine methosulfate, nitro blue tetrazolium; cell extract"}, "Frk": {"target": "T4, Frk (Sinorhizobium meliloti, UniProt Q92SC5)", "T4 construct": "N-terminal 6xHis tag, expressed from pMK48 (pRK7813) in S. meliloti Rm1021, partially purified on Ni-NTA", "T4 sequence (Q92SC5 1-308)": "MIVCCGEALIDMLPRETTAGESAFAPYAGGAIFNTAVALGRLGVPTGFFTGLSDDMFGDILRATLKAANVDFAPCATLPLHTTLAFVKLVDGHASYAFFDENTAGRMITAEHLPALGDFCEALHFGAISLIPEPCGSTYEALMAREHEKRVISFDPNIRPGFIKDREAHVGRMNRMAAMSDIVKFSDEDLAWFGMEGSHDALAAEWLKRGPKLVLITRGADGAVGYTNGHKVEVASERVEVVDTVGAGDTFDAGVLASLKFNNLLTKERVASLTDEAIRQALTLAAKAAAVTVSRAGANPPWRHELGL", "experiment": "PK/LDH-coupled kinase assay, […] nm", "assay_type": "biochemical", "details": "6 mM fructose, 3 mM ATP, 6 mM MgCl2, HEPES pH 7.5; partially purified"}, "SmoEFGK [2]": {"target": "T2, SmoEFGK", "experiment": "[…]-mannitol uptake competition, intact cells", "assay_type": "cell-based", "details": "2 µM 14C-mannitol as tracer, 10 µM unlabelled maltitol; mannitol-grown wild-type Rm1021"}, "SmoEFGK [3]": {"target": "T2, SmoEFGK", "experiment": "[…]-mannitol uptake, wild type against smoK mutant", "assay_type": "cell-based", "details": "labelled compound, 2 µM; cells grown in mannitol and glucose"}},
  "data": [
    {"smiles": "OC[C@@H](O)C(O)[C@H](O)CO", "note": "[D-arabitol]", "values": [
      {"measurement": "in-gel dehydrogenase activity stain, native PAGE", "setting": "MtlK", "result": "if D-arabitol was used as a substrate, bands that are coincident with what mannitol result"},
      {"measurement": "% reduction of uptake at 2 μM", "setting": "SmoEFGK [1]; 2 µM unlabelled D-arabitol", "result": "~ 50%"}
    ]},
    {"smiles": "NC(=O)c1ccc[n+]([C@@H]2O[C@H](COP(=O)(O)OP(=O)(O)OC[C@H]3O[C@@H](n4cnc5c(N)ncnc54)[C@H](O)[C@@H]3O)[C@@H](O)[C@H]2O)c1", "note": "[NAD^+]", "values": [
      {"measurement": "in-gel dehydrogenase activity stain, native PAGE", "setting": "SmoS", "result": "smoS encodes an NAD^+-dependent sorbitol and galactitol dehydrogenase"}
    ]},
    {"smiles": "OCC1(O)OC[C@@H](O)[C@@H](O)[C@@H]1O", "note": "(stereo partly shown) [fructose]", "values": [
      {"measurement": "PK/LDH-coupled kinase assay, 340 nm", "setting": "Frk", "result": "partially purified Frk was assayed for kinase activity using fructose as a substrate"}
    ]},
    {"smiles": "OC[C@@H](O)[C@@H](O[C@H]1O[C@H](CO)[C@@H](O)[C@H](O)[C@H]1O)[C@H](O)[C@@H](O)CO", "note": "[maltitol]", "values": [
      {"measurement": "% reduction of uptake at 10 μM", "setting": "SmoEFGK [2]", "result": "> 50", "unit": "%"}
    ]},
    {"smiles": "OC[C@@H](O)[C@@H](O)[C@H](O)[C@H](O)CO", "note": "[mannitol]", "values": [
      {"measurement": "14C-mannitol uptake, wild type against smoK mutant", "setting": "SmoEFGK [3]", "result": "SRmD495 cells were severely compromised in their ability to transport mannitol"}
    ]},
    {"smiles": "OC[C@@H](O)[C@@H](O)[C@H](O)[C@@H](O)CO", "note": "[sorbitol]", "values": [
      {"measurement": "% reduction of uptake at 2 μM", "setting": "SmoEFGK [1]; 2 µM unlabelled sorbitol", "result": "~ 50%"}
    ]}
  ]
}
